The text below walks through data of patent US10287258B2, “Certain (2S)-N-[(1S)-1-cyano-2-phenylethyl]-1,4-oxazepane-2-carboxamides as dipeptidyl peptidase 1 inhibitors” (AstraZeneca AB, priority 2014, dated 2019).

Data set [1] in a line: Test B: In-vitro competitive aortic tissue binding assay. The note with it: 100 μM compound, competition with [14C]4-amino-N-[(1S)-1-cyano-2-(4′-cyanobiphenyl-4-yl)ethyl]tetrahydro-2H-pyran-4-carboxamide, rat aortic homogenate. As for the experimental part: Test B: In-Vitro Competitive Aortic Tissue Binding Assay
Aortic homogenate was prepared from the thoracic aortae of Han Wistar rats. Freshly isolated thoracic aortae were frozen, and later thawed and stripped of non-elastic material. […] Homogenate concentration was adjusted to 30 mg/mL in Puck's saline, and aliquots were stored at −80° C. until use. Positive and negative control compounds and test compounds were made up to 100 mM in DMSO, and added to 1 mL aliquots of aortic homogenate in Puck's saline for a final concentration of 100 μM. Homogenate samples were pre-incubated with test compounds at 37° C., rotating, overnight. [^14C]4-Amino-N-[(1S)-1-cyano-2-(4′-cyanobiphenyl-4-yl)ethyl]tetrahydro-2H-pyran-4-carboxamide was then added to all samples to a final concentration of 100 μM, and samples were incubated at 37° C., rotating, for a further 2 h. Protein was precipitated from each sample by the addition of 10 mL acetone, pre-chilled to −20° C. Samples were left overnight at −20° C. to allow complete precipitation. […] Precipitate was washed by resuspension in 10 mL 80% methanol in distilled water, and re-pelleted by centrifugation at 4,500× g at 4° C. for 20 min. […] After final wash, precipitate was air-dried, and dissolved overnight in 1 mL NCSII Tissue Solubiliser. 1 mL aliquots of supernatants were added to 5 mL Ultima Gold scintillation fluid (Perkin Elmer, MA, U.S.A.), and 1 mL solubilised pellets were added to 5 mL Hionic-Fluor scintillation fluid (Perkin Elmer, MA, U.S.A.). Radioactivity of samples was determined on a Beckman LS6500 multipurpose scintillation counter (Beckman Coulter, IN, U.S.A.). […] Duplicate samples were tested for each compound on each experimental occasion, and at least two experiments were run for each test compound. […] 1-way ANOVA and Bonferroni's multiple comparison tests were performed to calculate significance of differences from vehicle control.

Data set [2] in a line: Rat quantitative whole-body autoradiography (QWBA) studies, aortic retention. The data set is classed as in vivo.
For data set [3] the following is noted: literature (Schmidt et al. 1984); cited from earlier work.
The target of data set [4] is recombinant human DPP1 (rhDPP1) (Homo sapiens (Human), UniProt P53634). The data set can be described thus: Test A2: Fluorescence assay for recombinant human (RH) DPP1. The data set is classed as biochemical. The note with it: Test A2 (Examples 36-37); 96.4 pM rhDPP1, 50 μM H-Gly-Arg-AMC, pH 5.0, rt. Here is the method: Test A2: Fluorescence Assay for Recombinant Human (RH) DPP1
Sequence of recombinant human DPP1 (rhDPP1) (P53634 231-394): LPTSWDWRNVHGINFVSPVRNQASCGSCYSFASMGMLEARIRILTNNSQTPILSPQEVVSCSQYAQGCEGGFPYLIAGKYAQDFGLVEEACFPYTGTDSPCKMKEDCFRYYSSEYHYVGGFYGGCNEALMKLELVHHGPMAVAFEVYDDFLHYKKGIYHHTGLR
Sequence of recombinant human DPP1 (rhDPP1) (P53634 25-134): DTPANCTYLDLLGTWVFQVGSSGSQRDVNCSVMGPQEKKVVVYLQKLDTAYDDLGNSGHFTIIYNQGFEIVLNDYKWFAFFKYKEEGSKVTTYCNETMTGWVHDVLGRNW
Sequence of recombinant human DPP1 (rhDPP1) (P53634 395-463): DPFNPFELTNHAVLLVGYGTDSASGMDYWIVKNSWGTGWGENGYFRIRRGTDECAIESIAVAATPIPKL
The activity of DPP1 was determined by measuring the enzymatic release of aminomethyl coumarin (AMC) from the peptide substrate (H-Gly-Arg-AMC), which leads to an increase in fluorescence intensity at λex=350 nm and λem=450 nm. The assay was carried out in black 384 well plates in a final volume of 10 μl at rt. The assay conditions contained the following: 25 mM piperazine buffer pH 5.0; 50 mM NaCl, 5 mM DTT; 0.005 (v/v) Triton X-100; 50 μM H-Gly-Arg-AMC and 96.4 pM rhDPP1 Potential inhibitors were diluted in DMSO to generate 100× of the final assay concentration. The compounds were tested at 10 concentrations with half-log dilution steps (highest concentration typically 1 μM) and with a final DMSO concentration of 1% (v/v). Routinely, inhibitors were pre-incubated with rhDPP1 for 30 min prior to the addition of the peptide substrate to start the reaction for a further 30 min. After incubation the plates were read in a fluorescence plate reader using the above emission and excitation wavelengths. The pIC50 were determined using a 4-paramater logistic equation in a non-linear curve fitting routine (Smartfit, Genedata Screener®). […]

For `Cn1c(=O)oc2ccc(-c3ccc(C[C@@H](C#N)NC(=O)[C@@H]4CNCCCO4)cc3)cc21` [Example 2, (2S)-N-{(1S)-1-Cyano-2-[4-(3-methyl-2-oxo-2,3-dihydro-1,3-benzoxazol-5-yl)phenyl]ethyl}-1,4-oxazepane-2-carboxamide], the “Aortic Tissue Binding” value in data set [1] is “No binder”.

As to `Cn1c(=O)oc2ccc(-c3ccc(C[C@@H](C#N)NC(=O)C4(N)CCOCC4)cc3)cc21` [WO2010/128324 (Example 17)], the “Aortic Tissue Binding” value in data set [1] is listed as “Strong binder”.

With `N#Cc1ccc(-c2ccc(C[C@@H](C#N)NC(=O)C3(N)CCOCC3)cc2)cc1` [WO2010/128324 (Ex. 3), 4-amino-N-[(1S)-1-cyano-2-(4′-cyanobiphenyl-4-yl)ethyl]tetrahydro-2H-pyran-4-carboxamide], the “aortic retention in rat QWBA studies” value in data set [2] is reported as “high level of aortic retention”. Also, the “Aortic Tissue Binding” value in data set [1] is recorded as “Strong binder reference”.

For the compound `N#Cc1ccc(-c2ccc(C[C@@H](C#N)NC(=O)[C@@H]3CCCCN3)cc2)cc1` [WO2009/074829 (Example 24)], in data set [1], the “Aortic Tissue Binding” value was “Binder”.

In the case of `Cn1c(=O)oc2ccc(-c3ccc(C[C@@H](C#N)NC(=O)[C@@H]4CCCCN4)cc3)cc21` [WO2009/074829 (Example 96)], the “Aortic Tissue Binding” value in data set [1] is recorded as “Medium binder”.

Take `CC(c1ccc(Cl)c(Cl)c1)N1N=C(N)CC1=O` (stereo not drawn) [muzolimine]: the “retention in the aorta in QWBA studies” value in data set [3] is “retained selectively in the aorta”.

With `CC(C)C[C@@H](/C=C/C(=O)N1CCc2ccccc21)NC(=O)[C@@H]1CNCCCO1.O=C(O)C(F)(F)F` [Example 37, (2S)-2-[(2E,4S)-1-(2,3-Dihydro-1H-indol-1-yl)-6-methyl-1-oxohept-2-en-4-yl]-1,4-oxazepane-2-carboxamide trifluoroactetate], the “DPP1 activity, pIC50” value in data set [4] is 8.28.

As for `CC[C@@H](/C=C/C(=O)N1CCc2ccccc21)NC(=O)[C@@H]1CNCCCO1.O=C(O)C(F)(F)F` [Example 36], in data set [4], the “DPP1 activity, pIC50” value was 8.3.
